Test system: neutrophil migration across HUVEC
Assay: Neutrophil transendothelial migration (TEM) restoration studies with PKC inhibitors in HUVEC
Format: cell-based, human
Conditions: for restoration of PMN TEM in response to LTB4 after PKC activator treatment: PKC inhibitor 30 min (1, 10, 100 nM) then 100 nM Bryostatin-1 1 h
Method: HUVEC were pretreated with G0-6983, a PKC inhibitor with dose dependent specificities for classical vs. novel PKC isoforms for 30 minutes prior to addition of Bryostatin-1 (100 nM) to block neutrophil migration. […] Neutrophil migration towards 100 nM LTB4 was initiated by adding LTB4 to the lower well.
Neutrophil Transendothelial Migration (TEM) Restoration Studies: HUVECs were pretreated with Go-6983 (1, 10, 100 nM), or Go-6976 (1, 10,100 nM) for 30 minutes, then spiked with 100 nM Bryostatin-1 for 1 hour. HUVECs previously nucleofected with PKC-δ, -ε, or control siRNA were just treated in Bryostatin-1 for 1 hour. HUVECs were washed three times and placed in a new plate containing either 500 IL 100 nM LTB4, or HBSS alone for control. Neutrophils were allowed to migrate for 3 h at 37° C. Migration was stopped by removing the inserts and migration was measured using the MPO assay.
Myeloperoxidase Assay: Neutrophil migration was measured using myeloperoxidase (MPO) analysis. Cell culture inserts were first removed, and plates were spun at 1,500 RPM for 5 min. The supernatant was removed, and MPO activity was measured using TMB/peroxide as chromogen. The reaction was stopped with sulfuric acid and absorbance was read at 450 nm using a microplate reader. All experiments were performed n=6. Data was expressed as “% neutrophil migration”, which allowed cumulative statistical analysis to be done and account for unpreventable batch-to-batch variations.

Row | SMILES | restoration of PMN TEM in response to LTB4 after PKC activator treatment | effect of inhibitor pretreatment on Bryostatin-1 mediated reduction in migration towards LTB4, 1 nM (1 nM inhibitor 30 min before 100 nM Bryostatin-1) | effect of inhibitor pretreatment on Bryostatin-1 mediated reduction in migration towards LTB4, 10 or 100 nM (10 or 100 nM inhibitor 30 min before 100 nM Bryostatin-1) | restoration of PMN TEM in response to LTB4 after PKC activator treatment (listed as G0-6983)
1 | Cn1c2ccccc2c2c3c(c4c5ccccc5n(CCC#N)c4c21)CNC3=O [GO-6976] | did not restore PMN TEM |  |  | 
2 | COc1ccc2c(c1)c(C1=C(c3c[nH]c4ccccc34)C(=O)NC1=O)cn2CCCN(C)C [Go-6983] | dose dependently restored neutrophil migration | but not by 1 nM G06983 | prevented | dose dependently reversed
3 | CC(=O)c1c(O)c(C)c(O)c(Cc2c(O)c3c(c(C(=O)/C=C/c4ccccc4)c2O)OC(C)(C)C=C3)c1O [Rottlerin] | did not restore PMN TEM |  |  | 
4 | CN(C)CCCn1cc(C2=C(c3c[nH]c4ccccc34)C(=O)NC2=O)c2ccccc21 [GF10923X] | did not restore PMN TEM |  |  | 
5 | CN[C@@H]1C[C@H]2O[C@@](C)([C@@H]1OC)n1c3ccccc3c3c4c(c5c6ccccc6n2c5c31)C(=O)NC4 [staurosporine] | did not restore PMN TEM |  |  | 

Source: patent US20230139328A1, “DOSAGE FORMS FOR IMPROVING ORGAN TRANSPLANTATION, GRAFT VERSUS HOST DISEASE AND STEM CELLS TRANSPLANTS” (Aphios Corporation, priority 2020, published 2023)
